# Results as given in ChEMBL document CHEMBL4507260 (2021).
# Tests used:
# Conditions in all cases: Compound concentration 1000.0 nM
# [1] = biological target: Calcium/calmodulin-dependent protein kinase type II subunit delta (Homo sapiens) (UniProt Q13557)
# [2] = biological target: Wee1-like protein kinase (Homo sapiens) (UniProt P30291)
# [3] = biological target: Ribosomal protein S6 kinase alpha-1 (Homo sapiens) (UniProt Q15418)
# [4] = biological target: Ephrin type-A receptor 3 (Homo sapiens) (UniProt P29320)
# [5] = biological target: Serine/threonine-protein kinase PLK4 (Homo sapiens) (UniProt O00444)
# [6] = biological target: Insulin receptor-related protein (Homo sapiens) (UniProt P14616)
# [7] = biological target: Discoidin domain-containing receptor 2 (Homo sapiens) (UniProt Q16832)
# [8] = biological target: Serine/threonine-protein kinase 17A (Homo sapiens) (UniProt Q9UEE5)
# [9] = biological target: Cyclin-dependent kinase-like 3 (Homo sapiens) (UniProt Q8IVW4)
# [10] = tested on: Proto-oncogene tyrosine-protein kinase receptor Ret (Homo sapiens), P07949 [V804L]
# [11] = biological target: Phosphatidylinositol 4,5-bisphosphate 3-kinase catalytic subunit alpha isoform (Homo sapiens) (UniProt P42336)
# [12] = biological target: Uncharacterized serine/threonine-protein kinase SBK3 (Homo sapiens) (UniProt P0C264)
# [13] = biological target: Megakaryocyte-associated tyrosine-protein kinase (Homo sapiens) (UniProt P42679)
# [14] = biological target: Wee1-like protein kinase 2 (Homo sapiens) (UniProt P0C1S8)
# [15] = biological target: Dual specificity protein kinase CLK2 (Homo sapiens) (UniProt P49760)
# [16] = biological target: G protein-coupled receptor kinase 4 (Homo sapiens) (UniProt P32298)
# [17] = tested on: Mast/stem cell growth factor receptor Kit (Homo sapiens), P10721 [L576P]
# [18] = biological target: Serine/threonine-protein kinase Nek9 (Homo sapiens) (UniProt Q8TD19)
# [19] = tested on: Hepatocyte growth factor receptor (Homo sapiens), P08581 [Y1235D]
# [20] = biological target: Ribosomal protein S6 kinase alpha-4 (Homo sapiens) (UniProt O75676)
# [21] = biological target: Rho-associated protein kinase 2 (Homo sapiens) (UniProt O75116)
# [22] = biological target: Serine/threonine-protein kinase PLK1 (Homo sapiens) (UniProt P53350)
# [23] = biological target: Vascular endothelial growth factor receptor 2 (Homo sapiens) (UniProt P35968)
# [24] = biological target: RAF proto-oncogene serine/threonine-protein kinase (Homo sapiens) (UniProt P04049)
# [25] = tested on: Receptor-type tyrosine-protein kinase FLT3 (Homo sapiens), P36888 [D835H]
# [26] = biological target: Receptor-interacting serine/threonine-protein kinase 2 (Homo sapiens) (UniProt O43353)
# [27] = biological target: Ephrin type-A receptor 1 (Homo sapiens) (UniProt P21709)
# [28] = biological target: Ribosomal protein S6 kinase alpha-2 (Homo sapiens) (UniProt Q15349)
# [29] = tested on: Epidermal growth factor receptor (Homo sapiens), P00533 [L858R,T790M]
# [30] = biological target: Serine/threonine-protein kinase SIK2 (Homo sapiens) (UniProt Q9H0K1)
# [31] = biological target: Serine/threonine-protein kinase 16 (Homo sapiens) (UniProt O75716)
# [32] = biological target: Protein-tyrosine kinase 2-beta (Homo sapiens) (UniProt Q14289)
# [33] = biological target: Cyclin-dependent kinase 2 (Homo sapiens) (UniProt P24941)
# [34] = biological target: Mitogen-activated protein kinase kinase kinase 7 (Homo sapiens) (UniProt O43318)
# [35] = biological target: Myosin light chain kinase family member 4 (Homo sapiens) (UniProt Q86YV6)
# [36] = biological target: NT-3 growth factor receptor (Homo sapiens) (UniProt Q16288)
# [37] = biological target: Ribosomal protein S6 kinase beta-1 (Homo sapiens) (UniProt P23443)
# [38] = biological target: Serine/threonine-protein kinase WNK2 (Homo sapiens) (UniProt Q9Y3S1)
# [39] = biological target: NUAK family SNF1-like kinase 2 (Homo sapiens) (UniProt Q9H093)
# [40] = biological target: cAMP-dependent protein kinase catalytic subunit PRKX (Homo sapiens) (UniProt P51817)
# [41] = biological target: Mitogen-activated protein kinase kinase kinase 9 (Homo sapiens) (UniProt P80192)
# [42] = biological target: G protein-coupled receptor kinase 3 (Homo sapiens) (UniProt P35626)
# [43] = biological target: Serine/threonine-protein kinase Chk2 (Homo sapiens) (UniProt O96017)
# [44] = biological target: Mitogen-activated protein kinase kinase kinase 4 (Homo sapiens) (UniProt Q9Y6R4)
# [45] = biological target: Eukaryotic translation initiation factor 2-alpha kinase 1 (Homo sapiens) (UniProt Q9BQI3)
# Chain of Insulin receptor-related protein (Homo sapiens) (P14616 27-742 limits assumed): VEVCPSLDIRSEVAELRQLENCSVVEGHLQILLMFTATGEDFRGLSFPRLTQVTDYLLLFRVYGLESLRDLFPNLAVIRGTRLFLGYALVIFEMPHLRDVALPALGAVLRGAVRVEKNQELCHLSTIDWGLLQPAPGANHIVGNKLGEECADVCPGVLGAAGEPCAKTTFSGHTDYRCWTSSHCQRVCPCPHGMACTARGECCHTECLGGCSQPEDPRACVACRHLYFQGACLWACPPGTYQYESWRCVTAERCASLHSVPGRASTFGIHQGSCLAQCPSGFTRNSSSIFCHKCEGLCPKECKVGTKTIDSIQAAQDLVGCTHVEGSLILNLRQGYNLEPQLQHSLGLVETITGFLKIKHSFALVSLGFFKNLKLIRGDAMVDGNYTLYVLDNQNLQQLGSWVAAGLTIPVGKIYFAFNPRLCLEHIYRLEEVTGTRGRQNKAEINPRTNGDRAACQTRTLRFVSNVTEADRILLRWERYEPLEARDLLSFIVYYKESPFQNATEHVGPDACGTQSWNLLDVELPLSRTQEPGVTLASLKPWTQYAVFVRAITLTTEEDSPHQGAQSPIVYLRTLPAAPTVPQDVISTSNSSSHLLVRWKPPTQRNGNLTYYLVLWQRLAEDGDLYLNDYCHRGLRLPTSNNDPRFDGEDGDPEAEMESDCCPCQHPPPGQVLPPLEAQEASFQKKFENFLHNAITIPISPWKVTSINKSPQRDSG
# Chain of Insulin receptor-related protein (Homo sapiens) (P14616 747-1297 limits assumed): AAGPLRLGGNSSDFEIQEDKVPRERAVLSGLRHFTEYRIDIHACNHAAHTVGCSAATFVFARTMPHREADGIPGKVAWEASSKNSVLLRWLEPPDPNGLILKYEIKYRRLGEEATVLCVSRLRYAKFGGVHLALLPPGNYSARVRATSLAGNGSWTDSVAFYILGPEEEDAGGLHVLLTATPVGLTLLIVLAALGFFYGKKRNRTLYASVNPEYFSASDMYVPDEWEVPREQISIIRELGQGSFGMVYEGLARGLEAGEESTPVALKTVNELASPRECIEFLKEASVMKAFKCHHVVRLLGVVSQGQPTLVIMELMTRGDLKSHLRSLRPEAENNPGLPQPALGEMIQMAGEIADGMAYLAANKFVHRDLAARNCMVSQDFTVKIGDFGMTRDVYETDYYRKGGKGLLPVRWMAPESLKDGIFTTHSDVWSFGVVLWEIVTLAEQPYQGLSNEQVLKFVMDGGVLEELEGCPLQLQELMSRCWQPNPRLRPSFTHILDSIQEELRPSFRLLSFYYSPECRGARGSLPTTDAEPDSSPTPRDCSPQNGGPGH
# Chain of Serine/threonine-protein kinase Nek9 (Homo sapiens) (Q8TD19 whole entry): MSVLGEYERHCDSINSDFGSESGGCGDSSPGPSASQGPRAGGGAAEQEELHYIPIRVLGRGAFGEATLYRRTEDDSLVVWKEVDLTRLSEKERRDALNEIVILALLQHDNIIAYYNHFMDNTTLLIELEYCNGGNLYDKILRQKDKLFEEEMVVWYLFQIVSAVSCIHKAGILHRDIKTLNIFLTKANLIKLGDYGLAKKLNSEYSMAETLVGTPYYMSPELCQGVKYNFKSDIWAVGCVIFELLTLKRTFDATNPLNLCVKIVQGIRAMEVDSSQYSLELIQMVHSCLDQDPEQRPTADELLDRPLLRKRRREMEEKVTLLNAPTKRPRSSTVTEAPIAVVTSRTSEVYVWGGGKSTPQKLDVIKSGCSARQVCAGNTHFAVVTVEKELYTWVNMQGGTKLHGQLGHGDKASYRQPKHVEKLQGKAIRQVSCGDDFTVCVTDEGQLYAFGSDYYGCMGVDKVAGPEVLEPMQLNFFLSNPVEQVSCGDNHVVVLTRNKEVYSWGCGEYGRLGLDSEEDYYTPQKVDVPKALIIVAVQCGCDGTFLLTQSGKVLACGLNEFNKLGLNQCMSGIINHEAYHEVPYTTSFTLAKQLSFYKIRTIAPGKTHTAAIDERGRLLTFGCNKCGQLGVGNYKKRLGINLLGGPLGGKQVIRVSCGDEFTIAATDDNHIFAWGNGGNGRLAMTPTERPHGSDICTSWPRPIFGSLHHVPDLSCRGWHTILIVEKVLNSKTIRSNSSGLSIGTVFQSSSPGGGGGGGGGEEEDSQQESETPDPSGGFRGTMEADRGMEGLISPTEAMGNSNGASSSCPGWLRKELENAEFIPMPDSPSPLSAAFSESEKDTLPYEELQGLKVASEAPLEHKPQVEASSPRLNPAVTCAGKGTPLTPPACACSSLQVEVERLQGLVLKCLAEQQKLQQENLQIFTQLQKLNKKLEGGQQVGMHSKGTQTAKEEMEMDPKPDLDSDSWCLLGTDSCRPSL
# Chain of Receptor-interacting serine/threonine-protein kinase 2 (Homo sapiens) (O43353 whole entry): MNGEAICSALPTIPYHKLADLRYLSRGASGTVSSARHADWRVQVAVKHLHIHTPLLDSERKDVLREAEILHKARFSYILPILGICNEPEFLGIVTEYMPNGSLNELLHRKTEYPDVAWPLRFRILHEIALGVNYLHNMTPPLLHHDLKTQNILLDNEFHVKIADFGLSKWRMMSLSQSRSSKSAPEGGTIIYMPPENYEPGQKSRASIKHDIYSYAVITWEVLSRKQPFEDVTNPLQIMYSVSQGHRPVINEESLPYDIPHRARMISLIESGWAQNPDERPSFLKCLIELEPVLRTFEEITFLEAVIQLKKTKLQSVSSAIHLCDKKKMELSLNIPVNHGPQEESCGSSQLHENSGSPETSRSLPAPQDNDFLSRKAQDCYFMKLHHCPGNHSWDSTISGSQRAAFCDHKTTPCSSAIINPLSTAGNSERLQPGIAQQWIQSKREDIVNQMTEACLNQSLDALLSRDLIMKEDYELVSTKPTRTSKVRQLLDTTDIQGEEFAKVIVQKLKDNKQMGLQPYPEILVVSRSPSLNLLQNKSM
# Chain of NT-3 growth factor receptor (Homo sapiens) (Q16288 32-839 limits assumed): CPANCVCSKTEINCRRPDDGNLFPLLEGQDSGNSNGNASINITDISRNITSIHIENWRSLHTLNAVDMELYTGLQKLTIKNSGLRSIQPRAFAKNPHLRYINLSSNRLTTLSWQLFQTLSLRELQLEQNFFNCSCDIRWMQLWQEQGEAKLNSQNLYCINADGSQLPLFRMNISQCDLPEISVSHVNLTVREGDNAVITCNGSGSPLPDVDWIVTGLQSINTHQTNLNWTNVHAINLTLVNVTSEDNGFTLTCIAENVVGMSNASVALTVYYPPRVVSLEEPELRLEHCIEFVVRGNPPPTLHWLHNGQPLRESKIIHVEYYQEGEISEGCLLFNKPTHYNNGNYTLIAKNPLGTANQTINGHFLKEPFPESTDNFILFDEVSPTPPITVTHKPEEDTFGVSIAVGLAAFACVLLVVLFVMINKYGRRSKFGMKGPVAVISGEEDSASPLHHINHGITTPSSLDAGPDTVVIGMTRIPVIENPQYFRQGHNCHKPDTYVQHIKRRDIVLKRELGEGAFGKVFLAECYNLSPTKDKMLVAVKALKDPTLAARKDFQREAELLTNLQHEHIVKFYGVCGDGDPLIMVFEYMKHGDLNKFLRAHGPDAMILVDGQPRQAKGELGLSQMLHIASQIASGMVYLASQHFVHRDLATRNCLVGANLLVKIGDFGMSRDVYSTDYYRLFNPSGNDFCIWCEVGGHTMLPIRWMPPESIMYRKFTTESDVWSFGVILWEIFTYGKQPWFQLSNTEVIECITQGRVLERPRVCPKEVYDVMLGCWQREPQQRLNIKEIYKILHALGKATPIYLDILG
# Chain of Ribosomal protein S6 kinase alpha-1 (Homo sapiens) (Q15418 whole entry): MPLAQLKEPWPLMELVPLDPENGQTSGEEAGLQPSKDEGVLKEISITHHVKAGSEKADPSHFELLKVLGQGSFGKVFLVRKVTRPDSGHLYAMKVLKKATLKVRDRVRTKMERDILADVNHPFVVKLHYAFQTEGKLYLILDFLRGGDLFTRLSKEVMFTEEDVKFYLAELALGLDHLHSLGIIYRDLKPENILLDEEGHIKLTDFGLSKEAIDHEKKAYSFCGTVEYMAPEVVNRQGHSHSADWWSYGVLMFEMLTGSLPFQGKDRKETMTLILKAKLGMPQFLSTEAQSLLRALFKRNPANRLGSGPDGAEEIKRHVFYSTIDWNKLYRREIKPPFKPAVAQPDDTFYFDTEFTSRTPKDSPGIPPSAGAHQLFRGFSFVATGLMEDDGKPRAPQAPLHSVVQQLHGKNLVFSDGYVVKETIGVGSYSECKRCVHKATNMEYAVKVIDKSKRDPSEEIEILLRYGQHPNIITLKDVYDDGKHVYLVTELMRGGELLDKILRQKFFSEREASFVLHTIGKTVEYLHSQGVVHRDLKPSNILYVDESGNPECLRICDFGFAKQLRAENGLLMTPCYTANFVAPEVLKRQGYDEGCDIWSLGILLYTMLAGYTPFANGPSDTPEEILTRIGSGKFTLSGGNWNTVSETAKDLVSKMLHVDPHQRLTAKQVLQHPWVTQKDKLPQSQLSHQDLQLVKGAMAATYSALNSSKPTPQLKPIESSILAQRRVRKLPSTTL
# Chain of Myosin light chain kinase family member 4 (Homo sapiens) (Q86YV6 whole entry): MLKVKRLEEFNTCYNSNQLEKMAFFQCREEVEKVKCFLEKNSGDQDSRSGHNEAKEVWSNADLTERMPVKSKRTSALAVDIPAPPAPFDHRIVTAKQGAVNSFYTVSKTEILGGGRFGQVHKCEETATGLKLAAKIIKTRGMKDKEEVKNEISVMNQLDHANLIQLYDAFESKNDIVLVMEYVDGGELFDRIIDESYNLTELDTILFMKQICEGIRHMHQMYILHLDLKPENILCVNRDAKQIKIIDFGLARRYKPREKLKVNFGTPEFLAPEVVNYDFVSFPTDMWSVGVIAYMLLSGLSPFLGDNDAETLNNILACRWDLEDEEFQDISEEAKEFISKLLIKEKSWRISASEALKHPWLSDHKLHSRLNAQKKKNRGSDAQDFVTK
# Chain of Serine/threonine-protein kinase 16 (Homo sapiens) (O75716 whole entry): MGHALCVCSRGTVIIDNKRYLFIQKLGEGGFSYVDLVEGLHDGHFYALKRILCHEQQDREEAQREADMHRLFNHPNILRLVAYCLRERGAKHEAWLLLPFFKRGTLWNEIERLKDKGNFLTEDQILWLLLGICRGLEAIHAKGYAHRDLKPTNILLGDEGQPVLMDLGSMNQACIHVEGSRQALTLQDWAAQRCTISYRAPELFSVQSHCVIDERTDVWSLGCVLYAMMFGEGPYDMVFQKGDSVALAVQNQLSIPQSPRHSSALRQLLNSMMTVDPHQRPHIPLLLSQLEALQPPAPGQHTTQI
smiles,measurement,setting,value
CSc1cccnc1N1CCN(Cc2nc3ccccc3[nH]2)CC1 [A-769],residual activity,[1],100%
same,residual activity,[2],100%
same,residual activity,[3],100%
same,residual activity,[4],100%
same,residual activity,[5],84%
same,residual activity,[6],94%
same,residual activity,[7],89%
same,residual activity,[8],98%
same,residual activity,[9],100%
same,residual activity,[10],98%
same,residual activity,[11],69%
same,residual activity,[12],100%
same,residual activity,[13],45%
same,residual activity,[14],100%
same,residual activity,[15],100%
same,residual activity,[16],88%
same,residual activity,[17],92%
same,residual activity,[18],100%
same,residual activity,[19],89%
same,residual activity,[20],73%
same,residual activity,[21],74%
same,residual activity,[22],78%
same,residual activity,[23],89%
same,residual activity,[24],91%
same,residual activity,[25],65%
same,residual activity,[26],100%
same,residual activity,[27],100%
same,residual activity,[28],100%
same,residual activity,[29],91%
same,residual activity,[30],100%
same,residual activity,[31],100%
same,residual activity,[32],100%
same,residual activity,[33],95%
same,residual activity,[34],74%
same,residual activity,[35],100%
same,residual activity,[36],83%
same,residual activity,[37],87%
same,residual activity,[38],100%
same,residual activity,[39],100%
same,residual activity,[40],100%
same,residual activity,[41],100%
same,residual activity,[42],31%
same,residual activity,[43],96%
same,residual activity,[44],100%
same,residual activity,[45],93%
c1ccc(N2CCN(Cc3nc4ccccc4[nH]3)CC2)nc1 [ABT-724],residual activity,[1],91%
same,residual activity,[2],100%
same,residual activity,[3],100%
same,residual activity,[4],100%
same,residual activity,[5],99%
same,residual activity,[6],97%
same,residual activity,[7],100%
same,residual activity,[8],100%
same,residual activity,[9],100%
same,residual activity,[10],100%
same,residual activity,[11],100%
same,residual activity,[12],100%
same,residual activity,[13],100%
same,residual activity,[14],100%
same,residual activity,[15],89%
same,residual activity,[16],100%
same,residual activity,[17],100%
same,residual activity,[18],100%
same,residual activity,[19],100%
same,residual activity,[20],100%
same,residual activity,[21],100%
same,residual activity,[22],100%
same,residual activity,[23],100%
same,residual activity,[24],100%
same,residual activity,[25],100%
same,residual activity,[26],100%
same,residual activity,[27],100%
same,residual activity,[28],99%
same,residual activity,[29],100%
same,residual activity,[30],100%
same,residual activity,[31],87%
same,residual activity,[32],100%
same,residual activity,[33],100%
same,residual activity,[34],52%
same,residual activity,[35],97%
same,residual activity,[36],87%
same,residual activity,[37],97%
same,residual activity,[38],100%
same,residual activity,[39],100%
same,residual activity,[40],100%
same,residual activity,[41],100%
same,residual activity,[42],67%
same,residual activity,[43],100%
same,residual activity,[44],100%
same,residual activity,[45],100%
